The test system of this assay is lipase (produced by Sigma). Kind of assay: Determination of lipase inhibitory activity (olive oil substrate emulsion, copper reagent, absorbance at 480 nm). In kind it is biochemical. The settings on record: 37° C., 30 minutes. As for the experimental part:
Ten micro litter of a solution containing the composition of the present invention obtained in Example 2 or 3 (diluted with a buffer to a final concentration of 0.01 or 0.1 mg/mL) or 10 μL of a solution containing the composition of the present invention obtained in Example 4 (at a final concentration of 1 mg/mL) was added to 80 μL, of a substrate emulsion (3.0 g of obtained by adding olive oil to 100 mL of a buffer described below, followed by sonication). The resultant was allowed to stand at 37° C. for 10 minutes. Ten micro litter of a lipase solution (diluted with a buffer to a concentration of lipase (produced by Sigma) of 1.0 mg/mL) was added thereto. The mixture was reacted with an enzyme reaction at 37° C. for 30 minutes. […] A coloring solution was added to the supernatant for determination of an absorbance at 480 nm. […] Results were calculated by Equation 1 described below with absorbance of the following: the composition of the present invention; a blank replaced the lipase solution with a buffer; and a control replaced a solution containing the composition of the present invention with a buffer. […]
Inhibition rate (%)=[1−[absorbance of the composition of the present invention−blank absorbance]/[control absorbance−blank absorbance]]

For the substance purothionin [Positive control], the Lipase inhibition rate was 76% (final concentration 0.1 mg/mL) and 96% (final concentration 1 mg/mL).

(Values after US20100173025A1, “FAT ABSORPTION INHIBITORY COMPOSITION” (NISSHIN PHARMA INC., priority 2007, published 2010).)
